Here are results for eight compounds from PubChem BioAssay (NCI).

Some test systems named below: CCRF-CEM leukemia; K-562 leukemia; MALME-3M melanoma; MCF7 breast; MDA-MB-435; MOLT-4 leukemia; NCI-H226 lung; NCI-H460 lung; NCI/ADR-RES ovarian; OVCAR-3 ovarian; RPMI-8226 leukemia; RXF 393 renal; SN12C renal; SNB-75 CNS; T-47D breast; TK-10 renal; UACC-62 melanoma; OVCAR-4 ovarian; SK-MEL-2 melanoma; HOP-92 NSCLC.
What all share (assay): inhibition of tumour cell growth, NCI panel, 48 h

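Interpolation was linear, between the two tested concentrations surrounding the appropriate level; five concentrations were tested over 48 hours in 96-well plates. Definition used: TGI = concentration required for complete inhibition of growth.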

As for `O=C1/C(=C\c2ccc([N+](=O)[O-])cc2)N(S(=O)(=O)c2ccccc2)c2ncccc21`, the TGI in the test on CCRF-CEM leukemia was > 100 µM; in the test on K-562 leukemia it was > 100 µM; with MALME-3M melanoma it was 33 µM; in the test with MCF7 breast, > 100 µM; in the test on MDA-MB-435, 47.2 µM; in the test with MOLT-4 leukemia, 13.5 µM. Besides, the TGI with NCI-H226 lung stood at 83.5 µM; in the test with NCI-H460 lung, 38.3 µM; in the test on NCI/ADR-RES ovarian, 63.3 µM; with OVCAR-3 ovarian, 31.3 µM; in the test with RPMI-8226 leukemia it was 41 µM; with RXF 393 renal, 37 µM. Besides, the TGI was determined as 50.2 µM in the test on SN12C renal; 43.1 µM with SNB-75 CNS; 35 µM with T-47D breast; 31.9 µM with TK-10 renal; 26 µM with UACC-62 melanoma.

In the case of `Clc1ccc(CCN(CCc2ccc(Cl)c(Cl)c2)CCN2CCCC2)cc1Cl`, the TGI stood at 2.73 µM in the test with CCRF-CEM leukemia; 3.5 µM in the test on MALME-3M melanoma; 2.88 µM in the test on MCF7 breast; 2.75 µM in the test on MDA-MB-435; 4.07 µM in the test with NCI-H226 lung; 3.34 µM with NCI-H460 lung. Also, the TGI in the test with NCI/ADR-RES ovarian was found to be 3.39 µM; in the test with OVCAR-3 ovarian, 3.2 µM; in the test with OVCAR-4 ovarian, 3.66 µM; with RPMI-8226 leukemia it was 5.38 µM; in the test on RXF 393 renal, 3.33 µM; with SK-MEL-2 melanoma it was 3.04 µM. For the same compound, the TGI with SNB-75 CNS was determined as 4.73 µM; in the test on T-47D breast it was 12.3 µM; in the test with TK-10 renal it was 3.17 µM; in the test on UACC-62 melanoma it was 3.06 µM.

`Cc1ccc(-n2[nH]nc(C(N)=O)c2=O)cc1`: the TGI in the test on CCRF-CEM leukemia, with K-562 leukemia, in the test on MALME-3M melanoma, in the test on MCF7 breast, with MDA-MB-435 and with MOLT-4 leukemia was > 100 µM in each case. Also, the TGI in the test with NCI-H226 lung, with NCI-H460 lung, in the test on NCI/ADR-RES ovarian, with OVCAR-3 ovarian, in the test on OVCAR-4 ovarian and in the test with RPMI-8226 leukemia was > 100 µM throughout. Moreover, the TGI with RXF 393 renal, with SN12C renal, in the test with SNB-75 CNS, with T-47D breast, in the test with TK-10 renal and in the test with UACC-62 melanoma was > 100 µM each time.

As to `N#Cc1ccc(-c2nc3c(N)ncnc3o2)cc1`, the TGI in the test with CCRF-CEM leukemia, in the test on K-562 leukemia, in the test with MCF7 breast, in the test with MDA-MB-435, in the test on MOLT-4 leukemia and with NCI-H226 lung was > 100 µM in each case. The TGI in the test with NCI-H460 lung, in the test with NCI/ADR-RES ovarian, in the test with OVCAR-3 ovarian, with RPMI-8226 leukemia, in the test on RXF 393 renal and in the test on SK-MEL-2 melanoma was > 100 µM throughout. For the same compound, the TGI with SN12C renal, in the test with T-47D breast, in the test on TK-10 renal and in the test with UACC-62 melanoma was > 100 µM in each case.

Consider `CC[C@@H](C)[C@H](NC(=O)[C@H](Cc1ccccc1)NCC(F)(F)F)C(=O)OC(C)(C)C`, for which the TGI in the test on CCRF-CEM leukemia, in the test with HOP-92 NSCLC, with K-562 leukemia, with MALME-3M melanoma, with MCF7 breast and in the test on MDA-MB-435 was > 100 µM each time. Besides, the TGI in the test with MOLT-4 leukemia, in the test on NCI-H226 lung, in the test with NCI-H460 lung, with NCI/ADR-RES ovarian, in the test on OVCAR-3 ovarian and with OVCAR-4 ovarian was > 100 µM in each case. Moreover, the TGI in the test with RXF 393 renal, in the test with SN12C renal, with T-47D breast, in the test with TK-10 renal and in the test on UACC-62 melanoma was > 100 µM in each case.

With `COc1ccc(Cn2c(=O)c(OC)c(C)c3cc4ccccc4cc32)cc1`, the TGI in the test on CCRF-CEM leukemia is > 100 µM; with K-562 leukemia, > 100 µM; with MALME-3M melanoma, 72.7 µM; in the test on MCF7 breast, > 100 µM; in the test with MDA-MB-435, > 100 µM; in the test with MOLT-4 leukemia it was 53 µM. Besides, the TGI in the test with NCI-H226 lung was > 100 µM; with NCI-H460 lung, 36.8 µM; in the test on NCI/ADR-RES ovarian it was 87.9 µM; in the test with OVCAR-3 ovarian, > 100 µM; in the test on OVCAR-4 ovarian, > 100 µM; in the test with RXF 393 renal it was > 100 µM. Besides, the TGI in the test on SK-MEL-2 melanoma is 52.5 µM; with SN12C renal it was 42.6 µM; with SNB-75 CNS, > 100 µM; with T-47D breast it was > 100 µM; in the test with TK-10 renal it was 70.8 µM; with UACC-62 melanoma it was 69.9 µM.

For the compound `C=C(CCOC)CCC1CCCCC(CN(C)C)C1=O` (stereo not drawn), the TGI with CCRF-CEM leukemia, in the test on K-562 leukemia, in the test on MALME-3M melanoma, in the test on MCF7 breast, in the test with MDA-MB-435 and in the test with MOLT-4 leukemia was > 100 µM each time. The TGI in the test on NCI-H226 lung, in the test on NCI-H460 lung, in the test with NCI/ADR-RES ovarian, in the test on OVCAR-3 ovarian, in the test with OVCAR-4 ovarian and in the test on RPMI-8226 leukemia was > 100 µM in each case. The TGI in the test with RXF 393 renal, with SK-MEL-2 melanoma, with SN12C renal, with SNB-75 CNS, with T-47D breast and in the test on UACC-62 melanoma was > 100 µM each time.

On to `COc1cc2c(cc1OCCCCCCCCCCN1C(=O)c3cccc4cccc(c34)C1=O)N=C[C@@H]1CCCN1C2=O`, for which the TGI in the test with K-562 leukemia turned out to be 74.7 µM; with MALME-3M melanoma, 34 µM; in the test with MCF7 breast it was 9.26 µM; with MDA-MB-435 it was 18.8 µM; in the test on MOLT-4 leukemia, 5.76 µM; with NCI-H226 lung it was 5.25 µM. Moreover, the TGI in the test on NCI-H460 lung was found to be 78 µM; in the test with NCI/ADR-RES ovarian, 14.4 µM; in the test with OVCAR-3 ovarian it was 20.3 µM; in the test with OVCAR-4 ovarian, 6.11 µM; with RPMI-8226 leukemia, 4 µM; with RXF 393 renal, 10.1 µM. Also, the TGI in the test on SK-MEL-2 melanoma is 20.3 µM; in the test on SN12C renal, 18.3 µM; with SNB-75 CNS, 21.3 µM; with T-47D breast it was > 100 µM; in the test on TK-10 renal it was > 100 µM; in the test with UACC-62 melanoma, 24.8 µM.
